Experimental data as given in patent publication US20050106236A1, “5-Ht4partial agonist pharmaceutical compositions” (priority 2001, published 2005).

Assay: Solubility of tegaserod in water
Assay type: physicochemical
Conditions: at 25° C. in water
Protocol: A preferred agent is tegaserod, a 5-HT4 partial agonist of formula [drawing 1] or pharmaceutically acceptable salt form thereof, e.g. the hydrogen maleate (hereinafter “hml”) salt. Tegaserod has a solubility of about 0.02% at 25° C. in water and is acid sensitive.

solubility: about 0.02%
Structure (SMILES): CCCCCNC(=N)NN=Cc1c[nH]c2ccc(OC)cc12 [Tegaserod, 3-(5-methoxy-1H-Indol-3-yl-methylene)-N-pentylcarbazimidamide]
